Structures can show the parent of a compound that is named as a salt. Where two headings read alike, the source gives them in different places.
Assays:
pJNK in HCT-116 cells = experiment: Phospho-JNK (Thr183/Tyr185) Meso Scale ELISA assay, TNFα-stimulated HCT-116 cells; assay type: cell-based; settings: Homo sapiens, read-out: mean HCT-116 pJNK ELISA IC50 (Col. B)
How it was run: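 Meso Scale ELISA read of phospho-JNK (Thr183/Tyr185) in lysed HCT-116 cells. Cells were serum-reduced to 1% FCS for 2 hours, exposed to test drug for 4 hrs at 37° C, then given 10 ng/mL TNFα (final) for 10 minutes before lysis.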

p-p38 in HCT-116 cells = experiment: Phospho-p38 Meso Scale ELISA assay, TNFα-stimulated HCT-116 cells; assay type: cell-based; settings: Homo sapiens, read-out: mean HCT-116 p-p38 ELISA IC50 (Col. C)
Method: Detailed below are ELISA assays for pJNK and p38, and a TAK1 biochemical assay. […] In Table 1, Col.
• 1. Plate HCT-116 cells at 25,000 per well in 100 uL in 96 well clear dishes in normal growth medium. Day 2: • 1. Aspirate medium and replace with 90 μl reduced serum growth medium (1% FCS), incubate for 2 hours at 37° C. • 2. Make drugs at 10× in reduced serum medium and add 10 uL per well. • 3. Incubate at 37° C. for 4 hrs. • 4. Bring capture plates to room temperature. • 5. Block with 150 μl Blocking Solution (provided with kit) (600 mg Blocker A into 20 mL 1× Wash Buffer per plate) at room temperature with shaking. • 6. Wash plates 4× with 200 μl 1× wash buffer (10× provided with kit) before transferring lysates. • 7. Dilute TNFα to […] in reduced serum medium (this makes a 10× working stock). • 8. Add 10 μl TNFα to all wells except negative control wells, final concentration is 10 ng/mL. • 9. Incubate at 37° C. for 10 minutes. • 10. Remove medium by flicking into sink • 11. Wash cells with 100 uL ice cold PBS. • 12. Remove PBS by flicking into sink and patting on paper towels. • 13. Lyse cells in 50 μl ice cold 1× Complete Lysis Buffer plus Phosphatase and Protease inhibitors (all provided with kit) (10 mL Tris Lysis Buffer+200 μl Protease inhibitor solution+100 μl Phosphatase inhibitor I+100 μl Phosphatase inhibitor II). • 14. Incubate with shaking at 4° C. for 30 minutes. • 15. Transfer 45 μl to capture plate, cover with adhesive cover, and incubate at 4° C. over night with shaking. • Day 3: • 1. Wash plates 4× with 200 μl 1× wash buffer (10× provided with kit). • 2. […] Incubate at room temperature with shaking for 1 hour. • 4. Wash 4× with 200 μl 1× Wash Buffer. • 5. […] Read on Sector Imager. Phospho-p38 Meso Scale ELISA Assay Day 1: • 1. Plate HCT-116 cells at 25,000 per well in 100 uL in 96 well clear dishes in normal growth medium. zday 2: • 1. Aspirate medium and replace with 90 μl reduced serum growth medium (1% FCS), incubate for 2 hours at 37° C. • 2. Make drugs at 10× in reduced serum medium and add 10 uL per well. • 3. Incubate at 37° C. for 4 hrs. • 4. Bring capture plates to room temperature. • 5. Block with 150 μl Blocking Solution (provided with kit) (600 mg Blocker A into 20 mL 1× Wash Buffer per plate) at room temperature with shaking. • 6. Wash plates 4× with 200 μl 1× wash buffer (10× provided with kit) before transferring lysates. • 7. Dilute TNFα to […] in reduced serum medium (this makes a 10× working stock). • 8. Add 10 μl TNFα to all wells except negative control wells, final concentration is 10 ng/mL. • 9. Incubate at 37° C. for 10 minutes. • 10. Remove medium by flicking into sink • 11. Wash cells with 100 uL ice cold PBS. • 12. Remove PBS by flicking into sink and patting on paper towels. • 13. Lyse cells in 50 μl ice cold 1× Complete Lysis Buffer plus phosphatase and protease inhibitors (all provided with kit) (10 mL Tris Lysis Buffer+200 μl Protease inhibitor solution+100 μl Phosphatase inhibitor I+100 μl Phosphatase inhibitor II). • 14. Incubate with shaking at 4° C. for 30 minutes. • 15. Dilute lysates before transferring to capture plate with 100 μl Complete p38 Lysate • Dilution Buffer (provided with kit) (10 mL of Diluent 20±200 μl Protease inhibitor solution+100 μl Phosphatase inhibitor I+100 μl Phosphatase inhibitor II). • 16. Transfer 50 μl of diluted lysates to capture plate, cover with adhesive cover, and incubate at 4° C. over night with shaking. Day 3: • 1. Wash plates 4× with 200 μl 1× wash buffer (10× provided with kit). • 2. […] Incubate at room temperature with shaking for 1 hour. • 4. Wash 4× with 200 μl 1× Wash Buffer. • 5. […] Read on Sector Imager. TAK1 Biochemical Assay

TAK1-TAB1 fusion protein = target: T1, TAK1-TAB1 fusion protein (Homo sapiens, UniProt O43318); experiment: TAK1 biochemical assay (AlphaScreen, GST-MAP2K7 substrate)
T1 construct: purchased Carna
T1 sequence (O43318 with tags, fused parts or gaps limits assumed): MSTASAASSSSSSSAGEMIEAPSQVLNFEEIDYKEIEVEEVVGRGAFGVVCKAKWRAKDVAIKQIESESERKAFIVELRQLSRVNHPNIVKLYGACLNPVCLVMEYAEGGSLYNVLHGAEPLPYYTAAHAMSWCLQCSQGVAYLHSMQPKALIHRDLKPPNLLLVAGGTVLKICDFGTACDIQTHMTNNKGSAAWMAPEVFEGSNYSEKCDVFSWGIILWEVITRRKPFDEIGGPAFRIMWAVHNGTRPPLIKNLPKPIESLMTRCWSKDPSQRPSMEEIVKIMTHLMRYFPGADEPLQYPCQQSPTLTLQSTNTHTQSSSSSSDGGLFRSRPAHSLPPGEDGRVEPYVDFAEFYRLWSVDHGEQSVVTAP

[1] = TAK1-TAB1 fusion protein, GST-MAP2K7 substrate, read-out: mean TAK1 IC50 (Col. A)

Row | SMILES | IC50 (pJNK in HCT-116 cells) [nM] | IC50 (p-p38 in HCT-116 cells) [nM] | IC50 (TAK1-TAB1 fusion protein; [1]) [nM] | IC50 (TAK1-TAB1 fusion protein) [nM]
1 | CC(=O)N1CCC(n2cc(-c3cnc(N)c4oc(-c5cnc6[nH]ccc6c5)cc34)cn2)CC1 [Example 155, 1-(4-{4-[7-amino-2-(1H-pyrrolo[2,3-b]pyridin-5-yl)furo[2,3-c]pyridin-4-yl]-1H-pyrazol-1-yl}piperidin-1-yl)ethanone] | 100 to 1000 | 1000 to 10000 | 100 to 1000 | –
2 | CC(=O)N1CCC(n2cc(-c3cnc(N)c4oc(-c5ccc6c(c5)CCO6)cc34)cn2)CC1 [Example 108, 1-(4-{4-[7-amino-2-(2,3-dihydro-1-benzofuran-5-yl)furo[2,3-c]pyridin-4-yl]-1H-pyrazol-1-yl}piperidin-1-yl)ethanone] | 100 to 1000 | < 100 | 100 to 1000 | –
3 | CC(=O)N1CCC(n2cc(-c3cnc(N)c4oc(-c5cccc(C#N)c5)cc34)cn2)CC1 [Example 143, 3-{4-[1-(1-acetylpiperidin-4-yl)-1H-pyrazol-4-yl]-7-aminofuro[2,3-c]pyridin-2-yl}benzonitrile] | 100 to 1000 | 100 to 1000 | 100 to 1000 | –
4 | CC(=O)N1CCC(n2cc(-c3cnc(N)c4oc(-c5ccc(S(C)(=O)=O)cc5)cc34)cn2)CC1 [Example 129, 1-[4-(4-{7-amino-2-[4-(methylsulfonyl)phenyl]furo[2,3-c]pyridin-4-yl}-1H-pyrazol-1-yl)piperidin-1-yl]ethanone] | > 10000 | > 10000 | > 10000 | –
5 | CC(=O)c1cccc(-c2cc3c(-c4cnn(C5CCN(C(C)=O)CC5)c4)cnc(N)c3o2)c1 [Example 124, 1-(4-{4-[2-(3-acetylphenyl)-7-aminofuro[2,3-c]pyridin-4-yl]-1H-pyrazol-1-yl}piperidin-1-yl)ethanone] | 100 to 1000 | 1000 to 10000 | 1000 to 10000 | –
6 | Nc1ncc(-c2cnn(C3CCN(C(=O)C4CCC4)CC3)c2)c2cc(-c3cccc4cnccc34)oc12 [Example 53, (4-{4-[7-amino-2-(isoquinolin-5-yl)furo[2,3-c]pyridin-4-yl]-1H-pyrazol-1-yl}piperidin-1-yl)(cyclobutyl)methanone] | < 100 | 100 to 1000 | 100 to 1000 | –
7 | CSc1cccc(-c2cc3c(-c4cnn(C5CCN(C(C)=O)CC5)c4)cnc(N)c3o2)c1 [Example 133, 1-[4-(4-{7-amino-2-[3-(methylsulfanyl)phenyl]furo[2,3-c]pyridin-4-yl}-1H-pyrazol-1-yl)piperidin-1-yl]ethanone] | 1000 to 10000 | 1000 to 10000 | 1000 to 10000 | –
8 | CC(=O)N1CCC(n2cc(-c3cnc(N)c4oc(-c5cccc(S(C)(=O)=O)c5)cc34)cn2)CC1 [Example 101, 1-[4-(4-{7-amino-2-[3-(methylsulfonyl)phenyl]furo[2,3-c]pyridin-4-yl}-1H-pyrazol-1-yl)piperidin-1-yl]ethanone] | 1000 to 10000 | 1000 to 10000 | 1000 to 10000 | –
9 | CCN1CCC(n2cc(-c3cnc(N)c4oc(-c5cccc6cnccc56)cc34)cn2)CC1 [Example 78, 4-[1-(1-ethylpiperidin-4-yl)-1H-pyrazol-4-yl]-2-(isoquinolin-5-yl)furo[2,3-c]pyridin-7-amine] | 100 to 1000 | 100 to 1000 | 100 to 1000 | –

Second part, the molecule after the results:

Row | IC50 (pJNK in HCT-116 cells) [nM] | IC50 (p-p38 in HCT-116 cells) [nM] | IC50 (TAK1-TAB1 fusion protein; [1]) [nM] | IC50 (TAK1-TAB1 fusion protein) [nM] | SMILES
10 | < 100 | 100 to 1000 | 100 to 1000 | – | Nc1ncc(-c2cnn([C@H]3CC[C@H](O)CC3)c2)c2cc(-c3cc(F)cc4cnsc34)oc12 [Example 238, trans-4-{4-[7-amino-2-(5-fluoro-1,2-benzothiazol-7-yl)furo[2,3-c]pyridin-4-yl]-1H-pyrazol-1-yl}cyclohexanol diformate salt]
11 | 100 to 1000 | 100 to 1000 | 100 to 1000 | – | CC(=O)N1CCC(n2cc(-c3cnc(N)c4oc(-c5cccc6ccnn56)cc34)cn2)CC1 [Example 197, 1-(4-{4-[7-amino-2-(pyrazolo[1,5-a]pyridin-7-yl)furo[2,3-c]pyridin-4-yl]-1H-pyrazol-1-yl}piperidin-1-yl)ethanone]
12 | < 100 | 100 to 1000 | < 100 | – | CC(=O)N1CCC(n2cc(-c3cnc(N)c4oc(-c5csc6cnccc56)cc34)cn2)CC1 [Example 189, 1-(4-{4-[7-amino-2-(thieno[2,3-c]pyridin-3-yl)furo[2,3-c]pyridin-4-yl]-1H-pyrazol-1-yl}piperidin-1-yl)ethanone]
13 | < 100 | < 100 | < 100 | – | CC(=O)N1CCC(n2cc(-c3cnc(N)c4oc(-c5cccc6nnsc56)cc34)cn2)CC1 [Example 224, 1-(4-{4-[7-amino-2-(1,2,3-benzothiadiazol-7-yl)furo[2,3-c]pyridin-4-yl]-1H-pyrazol-1-yl}piperidin-1-yl)ethanone diformate salt]
14 | 100 to 1000 | 100 to 1000 | 100 to 1000 | – | CC(=O)N1CCC(n2cc(-c3cnc(N)c4oc(-c5cccc(OCC#N)c5)cc34)cn2)CC1 [Example 205, (3-{4-[1-(1-acetylpiperidin-4-yl)-1H-pyrazol-4-yl]-7-aminofuro[2,3-c]pyridin-2-yl}phenoxy)acetonitrile]
15 | 100 to 1000 | 100 to 1000 | 100 to 1000 | – | Nc1ncc(-c2cnn(C3CC(=O)C3)c2)c2cc(-c3csc4cnccc34)oc12 [Example 315, 3-[4-(7-amino-2-thieno[2,3-c]pyridin-3-yl-furo[2,3-c]pyridin-4-yl)-pyrazol-1-yl]-cyclobutanone]
16 | < 100 | 100 to 1000 | 100 to 1000 | – | Nc1ncc(-c2cnn([C@H]3CC[C@H](O)CC3)c2)c2cc(-c3cncc4cnsc34)oc12 [Example 267, trans-4-{4-[7-amino-2-([1,2]thiazolo[4,5-c]pyridin-7-yl)furo[2,3-c]pyridin-4-yl]-1H-pyrazol-1-yl}cyclohexanol Diformate Salt]
17 | 100 to 1000 | 1000 to 10000 | – | 1000 to 10000 | Cc1nn(C)cc1-c1cnc(N)c2oc(-c3csc4cnccc34)cc12 [Example 293, 4-(1,3-dimethyl-1H-pyrazol-4-yl)-2-thieno[2,3-c]pyridin-3-yl-furo[2,3-c]pyridin-7-ylamine]
18 | – | 100 to 1000 | 100 to 1000 | – | Cc1sc2cnccc2c1-c1cc2c(-c3cnn([C@H]4CC[C@H](O)CC4)c3)cnc(N)c2o1 [Example 252, trans-4-{4-[7-amino-2-(2-methylthieno[2,3-c]pyridin-3-yl)furo[2,3-c]pyridin-4-yl]-1H-pyrazol-1-yl}cyclohexanol trifluoroacetate]
